pIC50: −log10 of the molar value. The source made the active and inactive calls. The calls are words filed in the database; no cut-off is given here.
Legend:
[1] = Tmax in cynomolgus monkey at 10 mg/kg, po by LC/MS/MS analysis; type: ADME, organism-based, Macaca fascicularis; settings: in vivo
IBC = experiment: Antitumor activity against human IBC cells xenografted in SCID mouse; type: functional
[2] = Drug level in plasma of NPM-ALK expressing human SUP-M2 cells xenografted mouse at 30 mg/kg, po administered as single dose measured at 6 hrs by LC-MS/MS analysis; type: ADME, organism-based
[3] = AUC (0 to 48 hrs) in Sprague-Dawley rat plasma at 30 mg/kg, po by LC/MS/MS analysis; type: ADME, organism-based; set-up: time < 48 hr, dose 30 mg/kg, route oral
[4] = Clearance in cynomolgus monkey at 1 mg/kg, iv by LC/MS/MS analysis; type: ADME, organism-based, Macaca fascicularis; settings: in vivo
[5] = Half life in cynomolgus monkey at 1 mg/kg, iv by LC/MS/MS analysis; type: ADME, organism-based, Macaca fascicularis; settings: in vivo
Cytochrome P450 2C19 = Cytochrome P450 2C19 (Homo sapiens, UniProt P33261); experiment: Inhibition of CYP2C19 in human liver microsomes using S-mephenytoin as substrate in presence of NADPH by LC/MS/MS analysis; type: ADME
Chain of Cytochrome P450 2C19 (P33261 whole entry): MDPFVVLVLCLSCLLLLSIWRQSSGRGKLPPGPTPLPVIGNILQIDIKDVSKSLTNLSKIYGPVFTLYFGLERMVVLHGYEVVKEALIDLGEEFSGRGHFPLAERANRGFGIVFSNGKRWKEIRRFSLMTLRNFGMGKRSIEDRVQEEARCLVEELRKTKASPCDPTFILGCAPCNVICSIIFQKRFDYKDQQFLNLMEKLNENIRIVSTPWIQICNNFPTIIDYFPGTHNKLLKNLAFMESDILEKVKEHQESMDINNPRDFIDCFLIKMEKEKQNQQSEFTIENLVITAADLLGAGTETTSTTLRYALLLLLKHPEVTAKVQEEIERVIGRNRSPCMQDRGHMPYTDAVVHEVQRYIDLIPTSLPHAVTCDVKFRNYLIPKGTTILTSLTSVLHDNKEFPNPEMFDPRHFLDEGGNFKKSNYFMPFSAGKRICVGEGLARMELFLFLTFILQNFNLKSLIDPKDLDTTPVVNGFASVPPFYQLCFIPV

[6] = Half life in Sprague-Dawley rat at 1 mg/kg, iv by LC/MS/MS analysis; type: ADME, organism-based; settings: in vivo
NCI-H2228 [7] = experiment: Antitumor activity against human NCI-H2228 cells expressing EML4-ALK xenografted in SCID-Beige mouse assessed as reduction in tumor volume at 55 mg/kg, po bid administered for 11 days measured during compound dosing; type: functional, organism-based
SUP-M2 [8] = experiment: Induction of apoptosis assessed as caspase 3/7 activation in human SUP-M2 cells expressing NPM-ALK; type: functional, cell-based
[9] = Antitumor activity against human HCC827 cells expressing activated FAK xenografted in SCID-Beige mouse assessed as incidence of partial tumor regression at 55 mg/kg, po bid administered for 28 days; type: functional
[10] = Drug level in plasma of NPM-ALK expressing human SUP-M2 cells xenografted mouse at 30 mg/kg, po administered as single dose measured at 24 hrs by LC-MS/MS analysis; type: ADME, organism-based
[11] = Cmax in cynomolgus monkey at 10 mg/kg, po by LC/MS/MS analysis; type: ADME, organism-based, Macaca fascicularis; set-up: dose 10 mg/kg, route oral; settings: in vivo
[12] = AUC (0 to infinity) in CD-1 mouse at 10 mg/kg, po by LC/MS/MS analysis; type: ADME, organism-based; set-up: dose 10 mg/kg, time infinity, route oral; settings: in vivo
[13] = Drug level in tumor of FAK expressing human CWR22 cells xenografted Nu/Nu mouse at 55 mg/kg, po administered as single dose measured at 6 hrs by LC-MS/MS analysis; type: ADME, organism-based, Neoplasm; settings: read-out: Drug uptake
[14] = Cmax in Sprague-Dawley rat plasma at 30 mg/kg, po by LC/MS/MS analysis; type: ADME, organism-based; set-up: dose 30 mg/kg, route oral
Cytochrome P450 1A2 = target: T1, Cytochrome P450 1A2 (Homo sapiens, UniProt P05177); experiment: Inhibition of CYP1A2 in human liver microsomes using phenacetin as substrate in presence of NADPH by LC/MS/MS analysis; type: ADME
T1 sequence (P05177 whole entry): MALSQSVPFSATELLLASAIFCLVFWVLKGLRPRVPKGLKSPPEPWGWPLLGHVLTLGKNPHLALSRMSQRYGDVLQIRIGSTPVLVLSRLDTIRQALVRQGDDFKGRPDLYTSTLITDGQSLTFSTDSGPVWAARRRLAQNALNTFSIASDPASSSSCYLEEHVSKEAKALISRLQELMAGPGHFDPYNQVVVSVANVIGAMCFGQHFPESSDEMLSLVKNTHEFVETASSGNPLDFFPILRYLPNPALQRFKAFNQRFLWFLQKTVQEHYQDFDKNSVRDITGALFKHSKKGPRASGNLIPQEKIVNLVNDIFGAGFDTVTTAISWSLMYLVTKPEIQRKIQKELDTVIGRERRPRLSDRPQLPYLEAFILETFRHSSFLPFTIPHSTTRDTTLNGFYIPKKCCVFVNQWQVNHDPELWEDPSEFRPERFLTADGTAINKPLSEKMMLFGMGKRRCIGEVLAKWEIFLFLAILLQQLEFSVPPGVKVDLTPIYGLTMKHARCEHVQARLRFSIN

SUP-M2 [15] = experiment: Antitumor activity against human SUP-M2 cells expressing NPM-ALK xenografted in SCID-Beige mouse assessed as tumor regression at 30 mg/kg, po qd administered for 12 days measured during compound dosing; type: functional, organism-based
[16] = AUC (0 to 48 hrs) in Sprague-Dawley rat brain at 30 mg/kg, po by LC/MS/MS analysis; type: ADME, organism-based; set-up: dose 30 mg/kg, time < 48 hr, route oral
[17] = Volume of distribution in CD-1 mouse at 1 mg/kg, iv by LC/MS/MS analysis; type: ADME, organism-based; settings: in vivo
[18] = Half life in CD-1 mouse at 1 mg/kg, iv by LC/MS/MS analysis; type: ADME, organism-based; settings: in vivo
[19] = Cmax in Sprague-Dawley rat brain at 30 mg/kg, po by LC/MS/MS analysis; type: ADME, organism-based; set-up: dose 30 mg/kg, route oral
NCI-H2228 [20] = experiment: Antitumor activity against human NCI-H2228 cells expressing EML4-ALK xenografted in SCID-Beige mouse assessed as reduction in tumor volume at 30 mg/kg, po bid administered for 11 days measured during compound dosing; type: functional, organism-based
Mus musculus [21] = experiment: Toxicity in SCID-Beige mouse xenografted with human HCC827 cells expressing activated FAK assessed as body weight loss at 30 to 55 mg/kg, po bid administered for 28 days measured every 2 to 3 days; type: organism-based; settings: in vivo
[22] = Cmax in Sprague-Dawley rat at 5 mg/kg, po by LC/MS/MS analysis; type: ADME, organism-based; set-up: dose 5 mg/kg, route oral; settings: in vivo
[23] = Volume of distribution in cynomolgus monkey at 1 mg/kg, iv by LC/MS/MS analysis; type: ADME, organism-based, Macaca fascicularis; settings: in vivo
[24] = target: Voltage-gated inwardly rectifying potassium channel KCNH2 (Homo sapiens, UniProt Q12809); experiment: Inhibition of human ERG
Chain of Voltage-gated inwardly rectifying potassium channel KCNH2 (Q12809 whole entry): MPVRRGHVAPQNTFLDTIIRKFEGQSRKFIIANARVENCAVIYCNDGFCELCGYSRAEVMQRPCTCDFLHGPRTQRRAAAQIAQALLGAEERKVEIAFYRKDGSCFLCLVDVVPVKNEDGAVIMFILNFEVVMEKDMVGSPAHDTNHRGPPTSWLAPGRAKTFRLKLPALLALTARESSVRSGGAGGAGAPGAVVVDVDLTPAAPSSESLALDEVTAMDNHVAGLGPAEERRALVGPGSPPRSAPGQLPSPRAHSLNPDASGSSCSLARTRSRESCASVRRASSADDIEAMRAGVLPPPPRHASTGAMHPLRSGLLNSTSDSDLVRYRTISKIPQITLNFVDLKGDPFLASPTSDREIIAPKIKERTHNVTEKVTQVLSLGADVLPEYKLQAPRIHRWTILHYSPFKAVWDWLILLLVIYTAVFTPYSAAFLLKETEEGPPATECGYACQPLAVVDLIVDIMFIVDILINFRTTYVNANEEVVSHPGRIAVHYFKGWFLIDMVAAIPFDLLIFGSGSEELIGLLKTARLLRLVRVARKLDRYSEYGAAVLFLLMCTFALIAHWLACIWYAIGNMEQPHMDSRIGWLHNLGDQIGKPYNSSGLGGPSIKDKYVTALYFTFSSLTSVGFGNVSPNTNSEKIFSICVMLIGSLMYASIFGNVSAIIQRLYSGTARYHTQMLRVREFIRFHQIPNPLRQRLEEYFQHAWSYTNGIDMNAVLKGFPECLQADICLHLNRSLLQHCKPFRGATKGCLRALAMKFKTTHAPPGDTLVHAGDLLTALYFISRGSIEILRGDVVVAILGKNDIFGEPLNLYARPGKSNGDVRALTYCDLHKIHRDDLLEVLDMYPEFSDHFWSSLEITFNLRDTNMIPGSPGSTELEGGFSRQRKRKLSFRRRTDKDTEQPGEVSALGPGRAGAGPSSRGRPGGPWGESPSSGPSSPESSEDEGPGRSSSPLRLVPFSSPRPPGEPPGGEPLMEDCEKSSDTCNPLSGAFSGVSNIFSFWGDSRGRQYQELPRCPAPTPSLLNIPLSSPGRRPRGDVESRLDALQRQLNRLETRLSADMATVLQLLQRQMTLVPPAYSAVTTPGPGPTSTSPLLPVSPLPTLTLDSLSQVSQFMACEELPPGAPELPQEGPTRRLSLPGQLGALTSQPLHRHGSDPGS

[25] = Dose normalized AUC in CD-1 mouse at 10 mg/kg, po by LC/MS/MS analysis; type: ADME, organism-based; settings: in vivo
Mus musculus [26] = experiment: Toxicity in SCID-Beige mouse xenografted with human HCC827 cells expressing activated FAK assessed as overt toxicity at 30 to 55 mg/kg, po bid administered for 28 days; type: organism-based; settings: in vivo, 672 h
[27] = Drug level in plasma of FAK expressing human CWR22 cells xenografted Nu/Nu mouse at 55 mg/kg, po administered as single dose measured at 12 hrs by LC-MS/MS analysis; type: ADME, organism-based
[28] = Oral bioavailability in cynomolgus monkey at 10 mg/kg by LC/MS/MS analysis; type: ADME, organism-based, Macaca fascicularis; settings: in vivo
[29] = Antitumor activity against human CTG-0785 cells expressing activated FAK xenografted in mouse assessed as tumor growth inhibition at 55 mg/kg, po bid administered for 13 days measured during compound dosing; type: functional; settings: CTG-0785, po, 312 h, read-out: TGI
[30] = Ratio of total drug level in Sprague-Dawley rat brain to plasma at 30 mg/kg, po; type: ADME, organism-based; settings: brain and plasma, read-out: BPR
[31] = Drug level in plasma of NPM-ALK expressing human SUP-M2 cells xenografted mouse at 30 mg/kg, po administered as single dose measured at 2 hrs by LC-MS/MS analysis; type: ADME, organism-based
[32] = Half life in rat liver microsomes by LC/MS/MS analysis; type: ADME

Question: Which results are given for `CNC(=O)c1ccccc1Nc1nc(Nc2ccc3c(c2OC)CCC[C@H](N2CCN(CCO)CC2)C3)ncc1Cl` [CEP-37440]?
Answer: Tmax [1]: 6 h; Activity (IBC): Dose-dependent effect; concentration at 6 h [2]: 3360 ng/mL; AUC(0-t) at 48 h [3]: 31500 ng·h/mL; clearance [4]: 30 mL/min/kg; half-life [5]: 5.4 h; pIC50 (Cytochrome P450 2C19): < 5.25; half-life [6]: 2 h; Activity (NCI-H2228 [7]): Active; Activity (SUP-M2 [8]): Active; Activity [9]: 60%; concentration at 24 h [10]: 1160 ng/mL; Cmax [11]: 239 ng/mL; AUC(0-inf) [12]: 16400 ng·h/mL; concentration at 6 h [13]: 8680 ng/g; Cmax [14]: 2120 ng/g; pIC50 (Cytochrome P450 1A2): < 5.25; Activity (SUP-M2 [15]): Active; AUC(0-t) at 48 h [16]: 61600 ng·h/mL; Vd [17]: 2.7 L/kg; half-life [18]: 3 h; Cmax [19]: 3160 ng/g; Activity (NCI-H2228 [20]): Active; Activity (Mus musculus [21]): Non-Toxic; Cmax [22]: 1340 ng/mL; Vd [23]: 13.2 L/kg; pIC50 [24]: < 5.00; AUC/dose [25]: 1643 ng·h/mL; Activity (Mus musculus [26]): Non-Toxic; concentration at 12 h [27]: 541 ng/mL; bioavailability [28]: 50%; inhibition in vivo at 55 mg/kg [29]: 70%; Kp [30]: 1.5 to 2; concentration at 2 h [31]: 4740 ng/mL; half-life [32]: 0.667 h

From ChEMBL document CHEMBL3856231 (J Med Chem, 2016)
